{"source": "patent US20260285877A1", "about": "“Macrocyclic EGFR Inhibitor, and Preparation Method Therefor and Pharmaceutical Use Thereof” (Abbisko Therapeutics Co., Ltd., priority 2022, published 2026)", "key": {"[1]": {"assay": "Pharmacokinetic experiment in mice", "assay_type": "in vivo", "settings": "mouse, plasma; ICR mice, PO 10 mg/kg (IV 2 mg/kg); read-out: Oral F", "description": "The purpose of this trial is to study the pharmacokinetic behavior of some compounds of the present invention, and the administration method is: Single oral administration (PO) to ICR mice. The compounds used in this trial are from the compounds in the specific examples of the present invention and the listed positive compounds. ICR mice male N=9 original source: Shanghai Sippr-Bk Lab Animal Co., Ltd. The compounds are weighed and dissolved in the corresponding solution (10% PG+10% Solutol®+80% pH3 citrate buffer). The mixture is then shaken well and sonicated to prepare a 1 mg/mL stock solution. Nine mice are orally administered at a dose of 10 mg/kg (or IV 2 mg/kg) after an overnight fast. About 90 μL of blood is collected via the submandibular vein per time point, heparin sodium anticoagulant is added, the sample is placed on ice after collection, and plasma is centrifuged within 1 hour (centrifugation conditions: 8,000 rpm, 6 minutes, 2-8° C.). The blood collection timepoints are 0, 0.25, 0.5, 1, 2, 4, 6, 8 and 24 h. The samples are stored in a −20° C. refrigerator. The plasma sample is 40 μL, 160 μL of ice-cold acetonitrile containing internal standard is added, vortexed for 3 minutes, and centrifuged at 11,000 rpm for 5 minutes. 100 μL of the supernatant is taken and added to 100 μL of water, 5 μL of the sample is taken and injected into LC/MS/MS for analysis."}, "[2]": {"test_system": "Ba/F3 EGFR-L858R-T790M-C797S (LTC)", "assay": "Cell proliferation assay (CellTiter-Glo), Ba/F3 EGFR-L858R-T790M-C797S", "assay_type": "cell-based", "settings": "Mus musculus, BaF3; Ba/F3 EGFR-L858R-T790M-C797S cells, 72 hour incubation, CTG", "experimental": "(§1) • (1) Harvest cells in a logarithmic growth phase and count the cells using a platelet counter.\n(§2) • (1) Add 10 μL PBS to each well of the TO plate containing cells. • (2) Thaw the CTG reagent and equilibrate the plate to room temperature for 30 minutes. • (3) Add an equal volume of CTG solution to each well. • (4) Lyse cells by shaking on an orbital shaker for 5 minutes. • (5) Leave the plate at room temperature for 20 minutes to stabilize the luminescence signal. • (6) Read the TO fluorescence signal.\n(§3) Then add 10 μL of the drug solution concentration to individual wells of the 96-well plate seeded with cells.\n(§4) • (1) Thaw the CTG reagent and equilibrate the plate to room temperature for 30 minutes. • (2) Add an equal volume of CTG solution to each well. • (3) Lyse cells by shaking on an orbital shaker for 5 minutes. • (4) Leave the plate at room temperature for 20 minutes to stabilize the fluorescence signal. • (5) Read fluorescence value.\n(§5) Analyze the data by using GraphPad Prism 7.0 software, and use Non-linear S-curve regression to fit the dose-response curves, to calculate the IC50 values (in nM)."}, "[3]": {"test_system": "Ba/F3 EGFR-L858R-C797S (LC)", "assay": "Cell proliferation assay (CellTiter-Glo), Ba/F3 EGFR-L858R-C797S", "assay_type": "cell-based", "settings": "Mus musculus, BaF3; Ba/F3 EGFR-L858R-C797S cells, 72 hour incubation, CTG", "experimental": "as §1, §2, §3, §4, §5"}, "A431 WT": {"test_system": "A431 WT", "assay": "Cell proliferation assay (CellTiter-Glo), A431 WT", "assay_type": "cell-based", "settings": "Homo sapiens, A-431; A431 WT cells, 72 hour incubation, CTG", "experimental": "as §1, §2, §3, §4, §5"}, "[4]": {"settings": "phase III FLAURA, compared with first-generation EGFR TKIs; cited from earlier work"}}, "data": [{"smiles": "CCS(=O)(=O)C[C@H]1CCN(c2nn3c4cc(ncc24)Nc2ccnc(n2)-c2cnn(C)c2OCC2(CCCC2)C3)C1", "note": "[Example 35, (S)-3′-(3-((ethylsulfonyl)meth-yl)pyrrolidin-1-yl)-1′-meth-ylspiro(cyclopentane-1,6′-8-oxa-3-aza-4(6,1)-pyrazolo [4,3-c]pyridina-2(2,4)-pyri-midina-1(4,5)-pyrazolacyclo-octaphane)]", "values": [{"measurement": "bioavailability", "setting": "[1]", "value": 81.5, "unit": "%"}]}, {"smiles": "CC(=O)N[C@@H]1CCN(c2nn3c4cc(ncc24)Nc2ccnc(n2)-c2cnn(C)c2OCC2(CCCC2)C3)C1", "note": "[Example 49]", "values": [{"measurement": "IC50", "setting": "[2]", "value": 29.6, "unit": "nM"}, {"measurement": "IC50", "setting": "[3]", "value": 59.9, "unit": "nM"}, {"measurement": "IC50", "setting": "A431 WT", "value": 926, "unit": "nM"}]}, {"smiles": "C=CC(=O)Nc1cc(Nc2nccc(-c3cn(C)c4ccccc34)n2)c(OC)cc1N(C)CCN(C)C", "note": "[Osimertinib]", "values": [{"measurement": "overall survival", "setting": "[4]", "value": 38.6, "unit": "months"}, {"measurement": "progression-free survival", "setting": "[4]", "value": 18.9, "unit": "months"}]}]}
